From US9724537B2, “Abnormal electrical conduction blocking apparatus using photodynamic therapy (PDT)” (Keio University, priority 2006, dated 2017)

What was measured:
Type in all cases: cell-based
[1] = tested on: cultured cardiac muscle cells derived from an SD rat; experiment: PDT cell lethality vs photosensitizer concentration, loading time and total dose (CCK-8); conditions: for cell lethality at 2 h after irradiation: loading 0 to 120 min, 5, 10, 15 J/cm^2
Procedure: Using cultured cardiac muscle cells derived from an SD rat, the relationship of the photosensitizer concentration, the photosensitizer loading time, and the cell lethality and the laser output required to induce cell death were examined
Cultured cardiac muscle cells derived from an SD rat were purchased from Cell Garage Co., Ltd. D-MEM/F12+10% FBS was used as a medium.
2.2 to 2.3×10^5 cells/ml of cardiac muscle cells in suspension were seeded on a collagen-coated 96-well plate at 0.1 ml/well (2.2 to 2.3×10^4 cells/well) and cultured in an incubator (37° C., CO2 concentration 5%) for six to seven days.
At this time, talaporfin sodium as a photosensitizer was dissolved in a medium at 5, 15, or 30 μg/ml. Cardiac muscle cells were loaded with talaporfin sodium for 0, 30, 60, or 120 min and irradiated with a laser beam. Laser irradiation was performed using a continuous semiconductor laser beam (peak wavelength, 670.8 nm; power density, 150 mW/cm^2) on a 0.5-cm^2 irradiation field (=area of a well) at 5, 10, and 15 J/cm^2.
After laser irradiation, 0.01 ml of Cell Counting Kit-8 (Dojindo Laboratories, hereinafter referred to as CCK-8) was added to the medium in each well, the plate was incubated for 2 h, and the absorbance at 450 nm was measured to calculate the cell lethality. The cell lethality was calculated based on the absorbance without performing laser irradiation as 100%.

[2] = tested on: rat cardiac muscle cells in primary culture; experiment: Pulsation and cell conditions of cardiac muscle cells in primary culture after PDT
Procedure: Cardiac muscle cells in primary culture were purchased in suspension and seeded on a 96-well microplate. Cells were cultured at 37° C. under 5% CO2, and cells on days 3 and 7 of culture were used. The cardiac muscle cells in primary culture were pulsatile, and pulsations among cells were synchronizing.
Cardiac muscle cells in primary culture were adjusted to a density of 2.0×10^4 cells/well. As a photosensitizer talaporfin sodium was dissolved in a medium at various concentrations and added at a concentration of 0.1 ml/well. After 1 to 2 h of loading, laser irradiation was performed, and the medium was replaced after the completion of irradiation.
At this time, a 0.5-cm^2 irradiation field (=area of well) was irradiated with a continuous semiconductor laser beam (peak wavelength, 670.8 nm) under various conditions. […]
(§1) Laser intensity: 150 mW/cm^2
Total energy density: 1, 2, 3, 5 J/cm^2
In Table 1, 1d, 2d, and 3d refer to one, two, and three days after PDT, respectively. μg refers to the photosensitizer concentration in μg/ml. Numerical values in Table 1 are (number of samples in which pulsation restarted)/(total number of samples).

[3] = tested on: myoblast strain H9c2 (2-1) derived from the rat cardiac muscle; experiment: PDT cell lethality (CCK-8) in cell strain H9c2 (2-1)
Procedure: Using a skeletal muscle-like myoblast strain H9c2 (2-1) derived from the rat cardiac muscle, the relationship between the photosensitizer concentration and the cell lethality and the laser output required to induce cell death were investigated.
The above-mentioned cells were subcultured in a D-MEM+10% FBS medium, confluent cells were isolated, seeded on a 96-well microplate, and cultured at 37° C. under 5% CO2 for one day.
The cultured cells were adjusted to a density of 2.0×10^4 cells/well. As a photosensitizer, talaporfin sodium was dissolved in a medium at various concentrations and added at a concentration of 0.1 ml/well. After 1 to 2 h of loading, cells were irradiated with a laser beam. After completion of irradiation, the medium was replaced.
At this time, in a 0.5-cm^2 irradiation field (=area of the well) was irradiated with a continuous semiconductor laser beam (peak wavelength, 670.8 nm) under various conditions.
After irradiation with a laser beam, 0.01 ml of Cell Counting Kit-8 (Dojindo Laboratories, hereinafter referred to as CCK-8) was added to the medium in each well, the plate was incubated for 2 h, and then absorbance was measured to obtain the cell lethality. For calculation of the cell lethality, the property of a coloring reagent in CCK-8 of producing a color upon reduction with dehydrogenase in the cell was utilized. Six samples were examined.
The experimental conditions were as follows.
(i) Relationship between photosensitizer concentration and cell lethality
Agent concentrations: 10, 20, 30, 40 μg/ml
as §1
Total energy density: 3 J/cm^2
(ii) Relationship between total energy density of laser irradiation and cell lethality
Agent concentrations: 7.5, 15 μg/ml
Total energy density: 3, 6, 9, 12 J/cm^2
(iii) Relationship between laser intensity and cell lethality

Q: What does the source list for `C=Cc1c(C)c2cc3nc(c(CC(=O)N[C@@H](CC(=O)O)C(=O)O)c4[nH]c(cc5nc(cc1[nH]2)C(C)=C5CC)c(C)c4C(=O)O)[C@@H](CCC(=O)O)[C@@H]3C` [talaporfin sodium, mono-L-aspartyl chlorine 6]?
A: cell lethality at 2 h after irradiation ([1]; 15 μg/ml or lower): no marked effect was observed; cell morphology immediately after laser beam irradiation ([1]; 30 μg/ml, 15 J/cm^2, loading 30 min): marked changes in cell morphology, such as exfoliation and shrinkage of cells, were observed; cell lethality at 2 h after irradiation ([1]; 30 μg/ml): the cell lethality markedly increased after laser beam irradiation; cell lethality vs loading time ([1]; loading 0, 30, 60, 120 min, FIG. 19): loading for 30 min was most effective; Restart of pulsation in cardiac muscle cells: (number of samples in which pulsation restarted)/(total number of samples) ([2]; 5 μg (μg/ml), 1J, 1 d after PDT): 4/8; Restart of pulsation in cardiac muscle cells: (number of samples in which pulsation restarted)/(total number of samples) ([2]; 5 μg (μg/ml), 1J, 2 d after PDT): 8/8; Restart of pulsation in cardiac muscle cells: (number of samples in which pulsation restarted)/(total number of samples) ([2]; 5 μg (μg/ml), 1J, 3 d after PDT): 8/8; Restart of pulsation in cardiac muscle cells: (number of samples in which pulsation restarted)/(total number of samples) ([2]; 5 μg (μg/ml), 2J, 1 d after PDT): 1/8; Restart of pulsation in cardiac muscle cells: (number of samples in which pulsation restarted)/(total number of samples) ([2]; 5 μg (μg/ml), 2J, 2 d after PDT): 8/8; Restart of pulsation in cardiac muscle cells: (number of samples in which pulsation restarted)/(total number of samples) ([2]; 5 μg (μg/ml), 2J, 3 d after PDT): 8/8; Restart of pulsation in cardiac muscle cells: (number of samples in which pulsation restarted)/(total number of samples) ([2]; 5 μg (μg/ml), 3J, 1 d after PDT): 0/8; Restart of pulsation in cardiac muscle cells: (number of samples in which pulsation restarted)/(total number of samples) ([2]; 5 μg (μg/ml), 3J, 2 d after PDT): 7/8; Restart of pulsation in cardiac muscle cells: (number of samples in which pulsation restarted)/(total number of samples) ([2]; 5 μg (μg/ml), 3J, 3 d after PDT): 8/8; Restart of pulsation in cardiac muscle cells: (number of samples in which pulsation restarted)/(total number of samples) ([2]; 5 μg (μg/ml), 5J, 1 d after PDT): 0/8; Restart of pulsation in cardiac muscle cells: (number of samples in which pulsation restarted)/(total number of samples) ([2]; 5 μg (μg/ml), 5J, 2 d after PDT): 8/8; Restart of pulsation in cardiac muscle cells: (number of samples in which pulsation restarted)/(total number of samples) ([2]; 5 μg (μg/ml), 5J, 3 d after PDT): 8/8; Restart of pulsation in cardiac muscle cells: (number of samples in which pulsation restarted)/(total number of samples) ([2]; 10 μg (μg/ml), 1J, 1 d after PDT): 0/8; Restart of pulsation in cardiac muscle cells: (number of samples in which pulsation restarted)/(total number of samples) ([2]; 10 μg (μg/ml), 1J, 2 d after PDT): 8/8; Restart of pulsation in cardiac muscle cells: (number of samples in which pulsation restarted)/(total number of samples) ([2]; 10 μg (μg/ml), 1J, 3 d after PDT): 8/8; Restart of pulsation in cardiac muscle cells: (number of samples in which pulsation restarted)/(total number of samples) ([2]; 10 μg (μg/ml), 2J, 1 d after PDT): 0/8; Restart of pulsation in cardiac muscle cells: (number of samples in which pulsation restarted)/(total number of samples) ([2]; 10 μg (μg/ml), 2J, 2 d after PDT): 7/8; Restart of pulsation in cardiac muscle cells: (number of samples in which pulsation restarted)/(total number of samples) ([2]; 10 μg (μg/ml), 2J, 3 d after PDT): 8/8; Restart of pulsation in cardiac muscle cells: (number of samples in which pulsation restarted)/(total number of samples) ([2]; 10 μg (μg/ml), 3J, 1 d after PDT): 0/8; Restart of pulsation in cardiac muscle cells: (number of samples in which pulsation restarted)/(total number of samples) ([2]; 10 μg (μg/ml), 3J, 2 d after PDT): 8/8; Restart of pulsation in cardiac muscle cells: (number of samples in which pulsation restarted)/(total number of samples) ([2]; 10 μg (μg/ml), 3J, 3 d after PDT): 8/8; Restart of pulsation in cardiac muscle cells: (number of samples in which pulsation restarted)/(total number of samples) ([2]; 10 μg (μg/ml), 5J, 1 d after PDT): 1/8; Restart of pulsation in cardiac muscle cells: (number of samples in which pulsation restarted)/(total number of samples) ([2]; 10 μg (μg/ml), 5J, 2 d after PDT): 8/8; Restart of pulsation in cardiac muscle cells: (number of samples in which pulsation restarted)/(total number of samples) ([2]; 10 μg (μg/ml), 5J, 3 d after PDT): 8/8; pulsation immediately after PDT ([2]; 10 μg/ml, 3 J/cm^2): the pulsation stopped immediately after PDT; cell conditions at one day after PDT ([2]; 10 μg/ml, 3 J/cm^2, FIG. 12): no damage was observed in the cell conditions; restart of pulsation and synchronization ([2]; 10 μg/ml, 3 J/cm^2, see Table 1): the pulsation restarted, and synchronization was observed at about one to three days after experiment; Restart of pulsation in cardiac muscle cells: (number of samples in which pulsation restarted)/(total number of samples) ([2]; 15 μg (μg/ml), 1J, 1 d after PDT): 0/8; Restart of pulsation in cardiac muscle cells: (number of samples in which pulsation restarted)/(total number of samples) ([2]; 15 μg (μg/ml), 1J, 2 d after PDT): 8/8; Restart of pulsation in cardiac muscle cells: (number of samples in which pulsation restarted)/(total number of samples) ([2]; 15 μg (μg/ml), 1J, 3 d after PDT): 8/8; Restart of pulsation in cardiac muscle cells: (number of samples in which pulsation restarted)/(total number of samples) ([2]; 15 μg (μg/ml), 2J, 1 d after PDT): 0/8; Restart of pulsation in cardiac muscle cells: (number of samples in which pulsation restarted)/(total number of samples) ([2]; 15 μg (μg/ml), 2J, 2 d after PDT): 8/8; Restart of pulsation in cardiac muscle cells: (number of samples in which pulsation restarted)/(total number of samples) ([2]; 15 μg (μg/ml), 2J, 3 d after PDT): 8/8; Restart of pulsation in cardiac muscle cells: (number of samples in which pulsation restarted)/(total number of samples) ([2]; 15 μg (μg/ml), 3J, 1 d after PDT): 1/8; Restart of pulsation in cardiac muscle cells: (number of samples in which pulsation restarted)/(total number of samples) ([2]; 15 μg (μg/ml), 3J, 2 d after PDT): 8/8; Restart of pulsation in cardiac muscle cells: (number of samples in which pulsation restarted)/(total number of samples) ([2]; 15 μg (μg/ml), 3J, 3 d after PDT): 8/8; Restart of pulsation in cardiac muscle cells: (number of samples in which pulsation restarted)/(total number of samples) ([2]; 15 μg (μg/ml), 5J, 1 d after PDT): 0/8; Restart of pulsation in cardiac muscle cells: (number of samples in which pulsation restarted)/(total number of samples) ([2]; 15 μg (μg/ml), 5J, 2 d after PDT): 8/8; Restart of pulsation in cardiac muscle cells: (number of samples in which pulsation restarted)/(total number of samples) ([2]; 15 μg (μg/ml), 5J, 3 d after PDT): 8/8; restart of pulsation ([2]; 20 μg/ml, 3 J/cm^2): The pulsation did not restart permanently; cell conditions at one day after PDT ([2]; 20 μg/ml, 3 J/cm^2, FIG. 13): Associated cells were separated, and individual cells themselves shrank; cell death vs total energy density ([3]; 7.5 μg/ml, 150 mW/cm^2, 3, 6, 9, 12 J/cm^2, FIG. 2): almost no cell death was observed; cell lethality vs total energy density ([3]; 15 μg/ml, 150 mW/cm^2, 3, 6, 9, 12 J/cm^2, FIG. 2): the greater the total energy density of laser irradiation was, the higher the cell lethality was; cell lethality at 40 μg/ml ([3]; 40 μg/ml vs 30 μg/ml, 150 mW/cm^2, 3 J/cm^2): the result did not differ from that at 30 μg/ml; cell lethality vs laser intensity ([3]; 7.5, 15 μg/ml, 3 J/cm^2, laser intensity 50 to 200 mW/cm^2, FIG. 3): the cell lethality did not change; cell lethality vs photosensitizer concentration ([3]; up to 30 μg/ml, 150 mW/cm^2, 3 J/cm^2, FIG. 1): the higher the photosensitizer concentration was, the higher the cell lethality was
